One assay concerns the target T1, HDAC1 (Homo sapiens, UniProt Q13547).
T1 construct: purchased Enzolifesciences BML-AK511
The assay can be described thus: HDAC enzyme activity inhibition (in vitro), HDAC1 Fluorimetric Drug Discovery Assay Kit. It is filed as biochemical. The following applies: samples at 100, 1000 and 10000 nM; 37° C. 60 minutes; fluorescence Ex 390, Em 460; read-out: HDAC1 IC50. The procedure, abridged:
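Fluorimetric read-out (Ex 390, Em 460) after a 60 min 37° C enzyme reaction and 30 min 37° C developer step. Tested levels: 0.1-1000 nM (0.1, 1, 10, 100, 1000) on recombinant human HDAC6; 100, 1000 and 10000 nM on HDAC1 kit enzyme.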

For another assay, the target named is T2, HDAC6 human recombinant (Homo sapiens, UniProt Q9UBN7).
T2 construct: purchased Calbiochem 382180
T2 sequence (Q9UBN7 1-1215): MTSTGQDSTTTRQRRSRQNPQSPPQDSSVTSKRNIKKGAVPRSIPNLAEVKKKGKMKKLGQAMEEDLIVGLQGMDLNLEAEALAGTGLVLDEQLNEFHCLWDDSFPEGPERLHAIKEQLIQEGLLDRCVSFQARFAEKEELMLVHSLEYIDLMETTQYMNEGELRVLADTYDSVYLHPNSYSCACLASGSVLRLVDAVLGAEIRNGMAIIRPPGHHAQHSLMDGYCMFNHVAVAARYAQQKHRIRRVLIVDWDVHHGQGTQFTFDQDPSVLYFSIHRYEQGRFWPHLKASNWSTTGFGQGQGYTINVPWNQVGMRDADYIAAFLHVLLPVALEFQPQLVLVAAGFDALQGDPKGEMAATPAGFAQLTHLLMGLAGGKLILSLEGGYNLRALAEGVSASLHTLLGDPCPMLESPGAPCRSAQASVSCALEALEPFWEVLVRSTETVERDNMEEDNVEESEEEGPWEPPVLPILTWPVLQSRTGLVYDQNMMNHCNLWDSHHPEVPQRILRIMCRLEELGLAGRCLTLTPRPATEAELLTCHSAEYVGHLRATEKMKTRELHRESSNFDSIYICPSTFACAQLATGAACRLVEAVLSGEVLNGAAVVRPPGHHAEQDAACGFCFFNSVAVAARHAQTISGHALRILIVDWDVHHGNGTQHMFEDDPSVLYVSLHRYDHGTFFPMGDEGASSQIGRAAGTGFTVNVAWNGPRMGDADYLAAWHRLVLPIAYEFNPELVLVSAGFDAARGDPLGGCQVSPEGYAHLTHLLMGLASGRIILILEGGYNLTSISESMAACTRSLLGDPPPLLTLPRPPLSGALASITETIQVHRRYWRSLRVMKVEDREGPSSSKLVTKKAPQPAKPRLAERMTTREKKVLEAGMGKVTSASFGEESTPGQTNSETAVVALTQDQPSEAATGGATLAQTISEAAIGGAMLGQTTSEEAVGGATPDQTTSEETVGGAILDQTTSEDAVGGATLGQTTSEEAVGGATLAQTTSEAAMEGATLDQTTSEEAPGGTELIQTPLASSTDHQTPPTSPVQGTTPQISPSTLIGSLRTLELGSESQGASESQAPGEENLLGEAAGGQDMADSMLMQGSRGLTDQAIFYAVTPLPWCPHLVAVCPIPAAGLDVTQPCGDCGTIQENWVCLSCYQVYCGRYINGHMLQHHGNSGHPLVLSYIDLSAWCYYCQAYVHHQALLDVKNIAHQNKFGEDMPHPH
The assay can be described thus: HDAC enzyme activity inhibition (in vitro), HDAC6 assay. It is filed as biochemical. The following applies: samples at 0.1, 1, 10, 100 and 1000 nM; 37° C. 60 minutes; fluorescence Ex 390, Em 460; read-out: HDAC6 IC50. The essentials: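 Fluorescence (Ex 390, Em 460) read after a 37° C, 60 min enzyme reaction and a further 30 min developer step at 37° C. Uses recombinant human HDAC6; HDAC1 arm dosed at 100, 1000, 10000 nM.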

Some results are limits rather than exact numbers.

T1 sequence (Q13547 whole entry): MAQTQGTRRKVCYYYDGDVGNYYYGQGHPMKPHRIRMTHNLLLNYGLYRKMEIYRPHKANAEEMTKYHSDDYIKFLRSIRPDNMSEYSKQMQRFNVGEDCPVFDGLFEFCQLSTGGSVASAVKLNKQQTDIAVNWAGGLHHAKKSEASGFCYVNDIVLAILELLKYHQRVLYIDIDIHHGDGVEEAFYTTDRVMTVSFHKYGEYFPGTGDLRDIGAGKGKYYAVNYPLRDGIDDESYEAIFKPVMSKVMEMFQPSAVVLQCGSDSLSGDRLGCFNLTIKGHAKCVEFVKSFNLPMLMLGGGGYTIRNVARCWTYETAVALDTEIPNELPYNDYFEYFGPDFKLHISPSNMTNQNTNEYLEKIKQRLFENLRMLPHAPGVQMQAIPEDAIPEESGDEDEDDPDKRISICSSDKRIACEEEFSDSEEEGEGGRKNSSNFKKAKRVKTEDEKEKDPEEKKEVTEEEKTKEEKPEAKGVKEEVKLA

By IC50 is commonly meant the midpoint of a concentration-inhibition curve. `O=c1oc2cc(-c3ccc(CN4CCOCC4)nc3)c(F)cc2n1Cc1ccc(-c2nnc(C(F)F)o2)cn1` [Compound 332, 3-((5-(5-(difluoromethyl)-1,3,4-oxadiazole-2-yl)pyridine-2-yl)methyl)-5-fluoro-6-(6-(morpholinomethyl)pyridine-3-yl)benzo[d]oxazole-2(3H)-one]: the IC50 is greater than 10000 nM at HDAC1 and 43 nM at HDAC6 human recombinant.

For the compound `O=c1sc2cc(-c3ccc(CN4CCOCC4)nc3)ccc2n1Cc1ccc(-c2nnc(C(F)F)o2)cn1` [Compound 333, 3-((5-(5-(difluoromethyl)-1,3,4-oxadiazole-2-yl)pyridine-2-yl)methyl)-6-(6-(morpholinomethyl)pyridine-3-yl)benzo[d]thiazole-2(3H)-one], the results for the IC50 at HDAC1 and at HDAC6 human recombinant were greater than 10000 nM and 38 nM, respectively.

In the case of `CN1CCC(c2cc3oc(=O)n(Cc4ccc(-c5nnc(C(F)F)o5)cn4)c3cc2F)CC1` [Compound 334, 3-((5-(5-(difluoromethyl)-1,3,4-oxadiazole-2-yl)pyridine-2-yl)methyl)-5-fluoro-6-(1-methylpiperidine-4-yl)benzo[d]oxazole-2(3H)-one], the IC50 is greater than 10000 nM on HDAC1 and 64 nM at HDAC6 human recombinant.

Turning to `CC(C)N1CCC(c2cc3oc(=O)n(Cc4ccc(-c5nnc(C(F)F)o5)cn4)c3cc2F)CC1` [Compound 335, 3-((5-(5-(difluoromethyl)-1,3,4-oxadiazole-2-yl)pyridine-2-yl)methyl)-5-fluoro-6-(1-isopropylpiperidine-4-yl)benzo[d]oxazole-2(3H)-one], the IC50 at HDAC1 was greater than 10000 nM; at HDAC6 human recombinant, 75 nM.

Take `O=c1oc2cc(C3CCN(C4COC4)CC3)c(F)cc2n1Cc1ccc(-c2nnc(C(F)F)o2)cn1` [Compound 336, 3-((5-(5-(difluoromethyl)-1,3,4-oxadiazole-2-yl)pyridine-2-yl)methyl)-5-fluoro-6-(1-(oxetan-3-yl)piperidine-4-yl)benzo[d]oxazole-2(3H)-one]: the 50% inhibitory concentration (IC50) at HDAC1 was greater than 10000 nM; on HDAC6 human recombinant, 44 nM.

With `CC(C)(C)OC(=O)N1CCN(c2ncc(-c3cc4oc(=O)n(Cc5ccc(-c6nnc(C(F)F)o6)cn5)c4cc3F)cn2)CC1` [Compound 337, tert-butyl 4-(5-(3-((5-(5-(difluoromethyl)-1,3,4-oxadiazole-2-yl)pyridine-2-yl)methyl)-5-fluoro-2-oxo-2,3-dihydrobenzo[d]oxazole-6-yl)pyrimidine-2-yl)piperazine-1-carboxylate], the IC50 on HDAC1 is greater than 10000 nM; on HDAC6 human recombinant it was 672 nM.

As for `CN1CCN(c2ncc(-c3cc4oc(=O)n(Cc5ccc(-c6nnc(C(F)F)o6)cn5)c4cc3F)cn2)CC1` [Compound 338, 3-((5-(5-(difluoromethyl)-1,3,4-oxadiazole-2-yl)pyridine-2-yl)methyl)-5-fluoro-6-(2-(4-methylpiperazine-1-yl)pyrimidine-5-yl)benzo[d]oxazole-2(3H)-one], the IC50 on HDAC1 was greater than 10000 nM; at HDAC6 human recombinant it was 47 nM.

On to `O=c1oc2cc(-c3cnc(N4CCN(C5COC5)CC4)nc3)c(F)cc2n1Cc1ccc(-c2nnc(C(F)F)o2)cn1` [Compound 339, 3-((5-(5-(difluoromethyl)-1,3,4-oxadiazole-2-yl)pyridine-2-yl)methyl)-5-fluoro-6-(2-(4-(oxetan-3-yl)piperazine-1-yl)pyrimidine-5-yl)benzo[d]oxazole-2(3H)-one], for which the IC50 on HDAC1 is greater than 10000 nM; at HDAC6 human recombinant it was 52 nM.

Turning to `Cn1c(=O)n(Cc2ccc(-c3nnc(C(F)F)o3)cc2F)c2cc(F)c(-c3ccc(CN4CCOCC4)nc3)cc21` [Compound 340, 1-(4-(5-(difluoromethyl)-1,3,4-oxadiazole-2-yl)-2-fluorobenzyl)-6-fluoro-3-methyl-5-(6-(morpholinomethyl)pyridine-3-yl)-1,3-dihydro-2H-benzo[d]imidazole-2-one], the IC50 on HDAC1 is greater than 10000 nM; on HDAC6 human recombinant, 65 nM.

Regarding `Cn1c(=O)n(Cc2ccc(-c3nnc(C(F)F)o3)cn2)c2cc(F)c(-c3cnc(N4CCN(C(=O)OC(C)(C)C)CC4)nc3)cc21` [Compound 341, tert-butyl 4-(5-(1-((5-(5-(difluoromethyl)-1,3,4-oxadiazole-2-yl)pyridine-2-yl)methyl)-6-fluoro-3-methyl-2-oxo-2,3-dihydro-1H-benzo[d]imidazole-5-yl)pyrimidine-2-yl)piperazine-1-carboxylate], the figures for the IC50 on HDAC1 and at HDAC6 human recombinant were greater than 10000 nM and 208 nM, respectively.

As to `CN1CCN(c2ncc(-c3cc4c(cc3F)n(Cc3ccc(-c5nnc(C(F)F)o5)cn3)c(=O)n4C)cn2)CC1` [Compound 342, 1-((5-(5-(difluoromethyl)-1,3,4-oxadiazole-2-yl)pyridine-2-yl)methyl)-6-fluoro-3-methy 1-5-(2-(4-methylpiperazine-1-yl)pyrimidine-5-yl)-1,3-dihydro-2H-benzo[d]imidazole-2-one], the IC50 was greater than 10000 nM on HDAC1 and 16 nM at HDAC6 human recombinant.

Consider `Cn1c(=O)n(Cc2ccc(-c3nnc(C(F)F)o3)cn2)c2cc(F)c(-c3cnc(N4CCN(C5COC5)CC4)nc3)cc21` [Compound 343, 1-((5-(5-(difluoromethyl)-1,3,4-oxadiazole-2-yl)pyridine-2-yl)methyl)-6-fluoro-3-methy 1-5-(2-(4-(oxetan-3-yl)piperazine-1-yl)pyrimidine-5-yl)-1,3-dihydro-2H-benzo[d]imidazole-2-one], for which the half-maximal inhibitory concentration (IC50) was greater than 10000 nM at HDAC1 and 19 nM at HDAC6 human recombinant.

In the case of `CC(C)(C)OC(=O)N1CCN(c2ccc(-c3cc4oc(=O)n(Cc5ccc(-c6nnc(C(F)F)o6)cn5)c4cc3F)cn2)CC1` [Compound 344, tert-butyl 4-(5-(3-((5-(5-(difluoromethyl)-1,3,4-oxadiazole-2-yl)pyridine-2-yl)methyl)-5-fluoro-2-oxo-2,3-dihydrobenzo[d]oxazole-6-yl)pyridine-2-yl)piperazine-1-carboxylate], the results for the IC50 on HDAC1 and on HDAC6 human recombinant were greater than 10000 nM and 671 nM, respectively.

With `O=c1oc2cc(-c3ccc(N4CCNCC4)nc3)c(F)cc2n1Cc1ccc(-c2nnc(C(F)F)o2)cn1` [Compound 345, 3-((5-(5-(difluoromethyl)-1,3,4-oxadiazole-2-yl)pyridine-2-yl)methyl)-5-fluoro-6-(6-(piperazine-1-yl)pyridine-3-yl)benzo[d]oxazole-2(3H)-one], the IC50 on HDAC1 is greater than 10000 nM; at HDAC6 human recombinant, 22 nM.

With `CN1CCN(c2ccc(-c3cc4oc(=O)n(Cc5ccc(-c6nnc(C(F)F)o6)cn5)c4cc3F)cn2)CC1` [Compound 346, 3-((5-(5-(difluoromethyl)-1,3,4-oxadiazole-2-yl)pyridine-2-yl)methyl)-5-fluoro-6-(6-(4-methylpiperazine-1-yl)pyridine-3-yl)benzo[d]oxazole-2(3H)-one], the figures for the concentration for half-maximal inhibition (IC50) at HDAC1 and at HDAC6 human recombinant were greater than 10000 nM and 47 nM, respectively.

For `CCN1CCN(c2ccc(-c3cc4oc(=O)n(Cc5ccc(-c6nnc(C(F)F)o6)cn5)c4cc3F)cn2)CC1` [Compound 347, 3-((5-(5-(difluoromethyl)-1,3,4-oxadiazole-2-yl)pyridine-2-yl)methyl)-6-(6-(4-ethylpiperazine-1-yl)pyridine-3-yl)-5-fluorobenzo[d]oxazole-2(3H)-one], the IC50 is greater than 10000 nM at HDAC1 and 62 nM at HDAC6 human recombinant.

With `O=c1oc2cc(-c3cncc(N4CCOCC4)c3)c(F)cc2n1Cc1ccc(-c2nnc(C(F)F)o2)cn1` [Compound 348, 3-((5-(5-(difluoromethyl)-1,3,4-oxadiazole-2-yl)pyridine-2-yl)methyl)-5-fluoro-6-(5-morpholinopyridine-3-yl)benzo[d]oxazole-2(3H)-one], the figures for the IC50 on HDAC1 and on HDAC6 human recombinant were greater than 10000 nM and 25 nM, respectively.

The values are drawn from patent publication US20230092890A1, “1, 3, 4-Oxadiazole derivative compounds as histone deacetylase 6 inhibitor, and the pharmaceutical composition comprising the same” (Chong Kun Dang Pharmaceutical Corp., priority 2019, published 2023).
